SMILES strings stand for the structures. The source made the active and inactive calls. The rule behind the calls is not given here.

In the assay the target is Muscarinic acetylcholine receptor M4 (Homo sapiens) (UniProt P08173). The assay can be described thus: human M4 receptor positive allosteric modulators, SAR follow-up, cell-based, calcium mobilization (AID 623938). Particulars: hM4 cells, PAM with EC20 ACh; for % ACh max: active compounds read high. Background: Calcium flux is commonly read through the fluorescence of an indicator in the cells.
Chain of Muscarinic acetylcholine receptor M4 (Homo sapiens) (P08173 whole entry, looked up): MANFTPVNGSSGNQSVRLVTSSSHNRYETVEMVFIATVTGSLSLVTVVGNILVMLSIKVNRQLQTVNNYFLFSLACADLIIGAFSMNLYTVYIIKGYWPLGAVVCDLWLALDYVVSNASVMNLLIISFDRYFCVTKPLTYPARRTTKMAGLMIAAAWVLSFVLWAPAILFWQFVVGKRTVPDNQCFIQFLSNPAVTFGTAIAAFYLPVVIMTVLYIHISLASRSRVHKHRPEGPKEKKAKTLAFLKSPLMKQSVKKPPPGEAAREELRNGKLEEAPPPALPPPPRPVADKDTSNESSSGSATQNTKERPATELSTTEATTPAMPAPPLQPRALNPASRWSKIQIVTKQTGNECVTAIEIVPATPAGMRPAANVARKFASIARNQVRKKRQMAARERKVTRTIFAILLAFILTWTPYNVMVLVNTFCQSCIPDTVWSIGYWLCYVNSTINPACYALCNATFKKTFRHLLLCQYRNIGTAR

Usually EC50 stands for the concentration at which the effect is half-maximal. For the compound `COCC(=O)Nc1nc2c(OC)ccc(C)c2s1`, the EC50 is > 10 µM. Consider `COc1ccc(C)c2sc(NS(=O)(=O)c3cc(C)ccn3)nc12`, for which the “% ACh max” value was “inactive”. Still for that read-out and setting: in the case of `O=C(Nc1nc2ccccc2s1)C1CCCCO1` (centres undefined) it was “inactive”. `Cc1nc2sc(C(=O)NCc3cccnc3)c(N)c2c(C)c1Cl`: the 50% effective concentration (EC50) was 0.328 µM. In the case of `COc1ccc(C)c2sc(C(=O)Nc3ccc(C)nc3)nc12`, the “% ACh max” value is “inactive”.

With `COc1ccc(C)c2sc(NS(=O)(=O)c3cccc(Cl)c3)nc12`, the “% ACh max” value is “inactive”. Turning to `COc1ccc(C)c2sc(NC(=O)NC3CC3)nc12`, the EC50 was > 10 µM. For the compound `COc1ccc(C)c2sc(NC(=O)c3ccccn3)nc12`, the “% ACh max” value was “inactive”.

On to `COc1ccc(C)c2sc(NC(=O)NC3CCCC3)nc12`, for which the EC50 was 3.58 µM.

Turning to `Cc1nc2sc(C(=O)Nc3ccccc3N(C)C)c(N)c2c(C)c1Cl`, the result was inactive. As to `COc1ccc(C)c2sc(NC(=O)Nc3ccncc3)nc12`, the “% ACh max” value is “inactive”.

Consider `Cc1nc2sc(C(=O)NC3CCCCC3)c(N)c2c(C)c1Cl`, for which the EC50 is 0.188 µM.

For the compound `Cc1nc2sc(C(=O)NCc3ccccc3)c(N)c2c(C)c1Cl`, the EC50 was 0.133 µM. Regarding `COc1ccc(C)c2sc(C(=O)NC3CCCCC3)nc12`, the “% ACh max” value was “inactive”. Take `COc1ccc(C)c2sc(NC(=O)c3ccncc3)nc12`: the EC50 is 1.4 µM. On to `COc1ccc(C)c2sc(NS(=O)(=O)c3ccc(C(F)(F)F)cc3)nc12`, for which the “% ACh max” value is “inactive”.

For the compound `Cc1nc2sc(C(=O)NCCC3CCCN3C)c(N)c2c(C)c1Cl` (centres undefined), the EC50 is 0.596 µM. In the case of `COc1ccc(C)c2sc(NC(=O)N3CCCCC3)nc12`, the “% ACh max” value was “inactive”. `COc1ccc(C)c2sc(C(=O)NC3CCCC3)nc12`: the “% ACh max” value was “inactive”. As for `Cc1nc2sc(C(=O)NCc3ccncc3)c(N)c2c(C)c1Cl`, the 50% effective concentration (EC50) was 0.037 µM. `Cc1nc2sc(C(=O)NCc3nccs3)c(N)c2c(C)c1Cl`: the EC50 was 0.174 µM. On to `O=C(Nc1nc2cccnc2s1)C1CCCC1`, for which the “% ACh max” value was “inactive”. Regarding `COc1ccc(C)c2sc(C(=O)NC3COC3)nc12`, the % ACh max was 36.4%. The same measure, in the same setting: under `COc1ccc(C)c2sc(NS(=O)(=O)c3cccc(C)c3)nc12` stands “inactive”. As to `Cc1nc2sc(C(=O)NCC3CCCCC3)c(N)c2c(C)c1Cl`, the EC50 is 1.09 µM. Regarding `Cc1nc2sc(C(=O)NCCc3cccnc3)c(N)c2c(C)c1Cl`, the result was inactive. For the compound `COc1ccc(C)c2sc(NC(C)=O)nc12`, the “% ACh max” value is “inactive”. On the same count and under the same terms, in the case of `COc1ccc(C)c2sc(NC(=O)CC(C)(C)C)nc12` it was “inactive”.

As for `COc1ccc(C)c2sc(NC(=O)c3cccnc3)nc12`, the EC50 is 2.5 µM. For the compound `COc1ccc(C)c2sc(NCC3CC3)nc12`, the “% ACh max” value was “inactive”.

Consider `COc1ccc(C)c2sc(C(=O)Nc3ccncc3)nc12`, for which the “% ACh max” value is “inactive”. `COc1ccc(C)c2sc(NC(=O)C3=COCCO3)nc12`: the EC50 was 1.9 µM. Take `COc1ccc(C)c2sc(NC(=O)C3CCCCC3)nc12`: the EC50 is > 10 µM. For `COc1ccc(C)c2sc(NS(=O)(=O)c3ccc4occc4c3)nc12`, the “% ACh max” value is “inactive”. On the same count and under the same terms, in the case of `COc1ccc2nc(NC(=O)c3ccncc3)sc2n1` it was “inactive”.

On to `COc1ccc(C)c2sc(NC(=O)c3cc(F)cc(F)c3)nc12`, for which the “% ACh max” value is “inactive”. `COc1cccc2sc(NC(=O)c3ccncc3)nc12`: the EC50 is 2.29 µM. Regarding `Cc1nc2sc(C(=O)NCc3ccncn3)c(N)c2c(C)c1Cl`, the EC50 is 0.173 µM.

As to `Cc1nc2sc(C(=O)NCc3cccc(F)c3F)c(N)c2c(C)c1Cl`, the EC50 is 0.12 µM.

Take `COc1ccc(C)c2sc(NC(=O)N3CCCC3)nc12`: the EC50 is > 10 µM. As to `Cc1cc(CNC(=O)c2sc3nc(C)c(Cl)c(C)c3c2N)ccn1`, the half-maximal effective concentration (EC50) is 0.057 µM. `COc1ccc(C)c2sc(NC(=O)NCc3ccncc3)nc12`: the “% ACh max” value was “inactive”.

`COc1ccc(C)c2sc(C(=O)NCc3ccncc3)nc12`: the “% ACh max” value was “inactive”. Regarding `Cc1ccc(CNC(=O)c2sc3nc(C)c(Cl)c(C)c3c2N)cc1`, the EC50 was 0.132 µM. Still for that read-out and setting: under `Cc1nc2sc(C(=O)NC(C)(C)C)c(N)c2c(C)c1Cl` stands 0.372 µM. As for `COc1ccc(C)c2sc(NC(=O)C3=C(C)OCCO3)nc12`, the “% ACh max” value is “inactive”. `Cc1nc2sc(C(=O)NCc3ccccn3)c(N)c2c(C)c1Cl`: the EC50 is 0.293 µM. The same measure, in the same setting: in the case of `COc1ccc(C)c2sc(C(=O)NC3CC3)nc12` it was > 10 µM; in that of `Cc1nc2sc(C(=O)NCc3ccccc3Cl)c(N)c2c(C)c1Cl`, 0.154 µM. Same read-out and setting: in the case of `COc1ccc(C)c2sc(NC(=O)C3CC3C)nc12` (centres undefined) it was > 10 µM; in that of `Cc1nc2sc(C(=O)NCc3ccnnc3)c(N)c2c(C)c1Cl`, 0.222 µM. As for `COc1ccc(C)c2sc(NC(=O)c3ccc(F)c(F)c3)nc12`, the “% ACh max” value was “inactive”. As to `COc1ccc(C)c2sc(NC(=O)C3CC3)nc12`, the EC50 was > 10 µM. For the compound `COc1ccc(C)c2sc(NC(=O)c3c(F)cccc3F)nc12`, the “% ACh max” value was “inactive”. With `COc1ccc(C)c2sc(NC(=O)C3CCC3)nc12`, the EC50 is > 10 µM. Same read-out and setting: under `Cc1nc2sc(C(=O)NC(C)C)c(N)c2c(C)c1Cl` stands 0.183 µM; under `COc1ccc(C)c2sc(NC(=O)C3CCCOC3)nc12` (centres undefined), > 10 µM.

As for `CCCCC1CC1C(=O)Nc1nc2c(OC)ccc(C)c2s1` (centres undefined), the “% ACh max” value was “inactive”. For `Cc1nc2sc(C(=O)NC(C)c3ccccn3)c(N)c2c(C)c1Cl` (centres undefined), the EC50 is 1.41 µM. For the compound `O=C(Nc1nc2cccnc2s1)C1CCC1`, the “% ACh max” value was “inactive”. With `Cc1nc2sc(C(=O)NCCc3ccccn3)c(N)c2c(C)c1Cl`, the EC50 was 0.686 µM. Consider `COc1ccc(NC(=O)c2sc3nc(C)c(Cl)c(C)c3c2N)cc1`, for which the outcome was “active; potentiator”. As for `COc1ccc(C)c2sc(NS(=O)(=O)c3cnn(C)c3)nc12`, the “% ACh max” value is “inactive”. As to `COc1ccc(C)c2sc(NC(=O)CCc3ccccc3)nc12`, the “% ACh max” value was “inactive”. On to `Cc1nc2sc(C(=O)NCCc3ccncc3)c(N)c2c(C)c1Cl`, for which the EC50 is 0.211 µM. In the case of `Cc1nc2sc(C(=O)NC3CCOCC3)c(N)c2c(C)c1Cl`, the EC50 was 0.22 µM. Still for that read-out and setting: in the case of `COc1ccc(C)c2sc(NC(=O)C(C)C)nc12` it was > 10 µM. Take `Cc1nc2sc(C(=O)NC3CC3)c(N)c2c(C)c1Cl`: the EC50 is 0.021 µM. Regarding `COc1ccc(C)c2sc(NC(=O)c3cnccn3)nc12`, the EC50 was 0.745 µM.

Take `CCCC(=O)Nc1nc2c(OC)ccc(C)c2s1`: the EC50 was > 10 µM. Regarding `O=C(Nc1nc2cccnc2s1)c1cccnn1`, the “% ACh max” value was “inactive”.

Take `Cc1nc2sc(C(=O)NC3CCOC3)c(N)c2c(C)c1Cl` (centres undefined): the EC50 is 0.029 µM.

As to `Cc1nc2sc(C(=O)NCc3ccc4c(c3)OCO4)c(N)c2c(C)c1Cl`, the EC50 is 0.17 µM.

Take `O=C(Nc1nc2cccnc2s1)c1cnccn1`: the “% ACh max” value is “inactive”. On to `Cc1nc2sc(C(=O)NC3COC3)c(N)c2c(C)c1Cl`, for which the EC50 was 0.906 µM. `COc1ccc(CNC(=O)c2sc3nc(C)c(Cl)c(C)c3c2N)cc1`: the EC50 was 0.089 µM.

For the compound `Clc1cccc(Nc2n[nH]c3ccccc23)c1`, the “% ACh max” value was “inactive”. On the same count and under the same terms, under `COc1ccc(C)c2sc(NC(=O)C3CCCCO3)nc12` (centres undefined) stands 64.1%. Consider `Cc1nc2sc(C(=O)NCc3ncccn3)c(N)c2c(C)c1Cl`, for which the EC50 was 1.07 µM. Consider `COc1ccc(C)c2sc(NC(=O)c3ccco3)nc12`, for which the EC50 is 1.43 µM. Still for that read-out and setting: under `Cc1nc2sc(C(=O)NCc3ccc(C(F)(F)F)cc3)c(N)c2c(C)c1Cl` stands 1.14 µM.

Regarding `COc1ccc(C)c2sc(NC(=O)c3ccc(C)cc3)nc12`, the “% ACh max” value is “inactive”.

`Cc1nc2sc(C(=O)NCc3ccc(F)c(F)c3)c(N)c2c(C)c1Cl`: the outcome was “active; potentiator”. As to `COc1ccc(C)c2sc(NC(=O)C3CCCC3)nc12`, the EC50 is > 10 µM. For the compound `Cc1nc2sc(C(=O)NC(C)c3cccnc3)c(N)c2c(C)c1Cl` (centres undefined), the half-maximal effective concentration (EC50) was 0.601 µM. As for `COc1ccc(C)c2sc(NS(=O)(=O)c3ccc(F)cc3F)nc12`, the “% ACh max” value was “inactive”. For the compound `COCCCNC(=O)c1sc2nc(C)c(Cl)c(C)c2c1N`, the EC50 is 0.425 µM.

As to `Cc1nc2sc(C(=O)NC(C)c3ccncc3)c(N)c2c(C)c1Cl` (centres undefined), the EC50 is 0.6 µM. The same measure, in the same setting: under `Cc1nc2sc(C(=O)NCc3cnccn3)c(N)c2c(C)c1Cl` stands 0.25 µM. Regarding `CCOc1ccc(NC(=O)c2sc3nc(C)c(Cl)c(C)c3c2N)cc1`, the outcome was inactive. For `COc1ccc(C)c2sc(NC(=O)c3ccc(F)cc3)nc12`, the “% ACh max” value is “inactive”. Still for that read-out and setting: in the case of `COc1ccc(C)c2sc(NC(=O)NC3CCC3)nc12` it was “inactive”; in that of `COc1ccc(C)c2sc(NC(=O)c3ccc(F)cc3F)nc12`, “inactive”. Consider `Cc1nc2sc(C(=O)NCc3ccc(Cl)cc3)c(N)c2c(C)c1Cl`, for which the outcome is “active; potentiator”.
